Legend:
[1] = test system: traumatic brain injury; CA3 hippocampus neurons; experiment: Traumatic brain injury model (delayed neuronal death), i.v. administration; assay type: in vivo, Wistar rats; conditions: for Neuronal densities CA3 hippocampus, i.v. administration: mean ± SD
Method: (§1) Contusing device. The contusing device consisted of a stainless steel tube, 40 cm in length, perforated at 1 cm intervals to prevent air compression in the tube. Wistar rats, 230–270 g, were anesthetized with chloral hydrate, 400 mg/kg i.p., a craniotomy over the right hemisphere was made, the device guiding a falling weight onto the footplate resting upon the surface of the dura was placed perpendicular to the surface of the skull, and a force of 380 g×cm produced by a 20 g weight was selected to produce brain contusion. A maximum of 2.5 mm depression of the brain surface was allowed to avoid mechanical puncture of the dura. The center of the footplate was stereotaxically positioned 1.5 mm posterior and 2.5 mm lateral to the bregma. The rats underwent perfusion fixation 3 days after brain injury with a solution containing 4% paraformaldehyde in phosphate buffer.
Intravenous injections: Compounds were administered i.v. using a 1 ml syringe attached to a 26 gauge needle. The needle was inserted into the left femoral vein following a small skin incision. Compounds were administered in a volume of 1 ml/kg body weight over 30 sec.
(§2) Morphometric analysis in hippocampus. The damage in the hippocampal CA3 subfield was determined stereologically at 5 different rostrocaudal levels extending from 10.21 to 11.21 mm (Swanson, L. W. (1992) Brain Maps: Structure of the Rat Brain, Elsevier, Amsterdam) and throughout its mediolateral axis three days after traumatic injury. To quantitatively assess neuronal loss in the hippocampus, stereological disector technique (Cruz-Orive, L. M. & Weibel, E. R. (1990) Am. J. Physiol. 258, L148–L156) was used to estimate numerical density (NV) of pyramidal neurons. An unbiased counting frame (0.05 mm×0.05 mm; disector height 0.01 mm) and a high-aperture objective (×40) were used for sampling. Normal neurons were identified by the presence of the typical nuclei with clear nucleoplasm and distinct nucleolus surrounded by cytoplasm containing Nissl substance. The border between CA2 and CA3 subfields was considered as the point where the looser arrangement of large pyramidal cells goes into densely packed pyramidal cells of the subfield CA3. An arbitrary line connecting the lateral ends of the dentate granule cell layers was considered a junction between subfields CA3 and CA4.
(P<0.001; n=8 per group).

[2] = test system: traumatic brain injury; CA3 hippocampus neurons; experiment: Traumatic brain injury model (delayed neuronal death), i.c.v. administration; assay type: in vivo, Wistar rats; conditions: for Effect of treatment on neuronal loss in the CA3 hippocampus (ANOVA): 10 μg i.c.v.; for Neuroprotective effect with delayed administration: administered i.c.v. up to 8 hrs after trauma; for Effect on hippocampal neuronal loss: injection of 10 μg into the right cerebral ventricle; for Neuroprotective effect in the traumatic brain injury model: result in words; for Neuronal densities CA3 hippocampus: traumatized right side, 10 μg i.c.v. 15 min after trauma, 3 days after injury, mean ± SD
Method: as §1
Intracerebroventricular (i.c.v.) injections: Compounds were administered i.c.v. by means of a Hamilton syringe in a volume of 5–15 μl. Injections were performed over 5 min, 15 min−8 hrs after trauma using the following stereotaxic coordinates: AP=−0.5 mm, L=−2 mm and V=−5.5 in relation to bregma (Swanson, L. W. (1992) Brain Maps: Structure of the Rat Brain, Elsevier, Amsterdam).
as §2
Dose responses of the neuroprotective effect of the compounds with the formulae 6 and 7 when administered i.c.v. 15 min after trauma to adult Wistar rats were measured. Neuronal densities were determined in the CA3 hippocampal subfield as described in the methods. Densities of CA3 neurons±Standard Deviation (=SED) in 6 stereotactic levels in the left non-traumatized side of vehicle treated rats and the traumatized right side of vehicle treated rats and in rats treated with the compounds with the formulae 6 and 7 were measured and the results listed in table 1 below. In all of the following tables the numbers (“n”) indicate the number of rats per group, where applicable.

SMILES	Effect of treatment on neuronal loss in the CA3 hippocampus (ANOVA) [2]	Neuroprotective effect with delayed administration [2]	Effect on hippocampal neuronal loss [2]	Neuroprotective effect in the traumatic brain injury model [2]	Neuronal densities CA3 hippocampus ([2]; stereotactic level 10.21) [cells × 10^3/mm^3]	Neuronal densities CA3 hippocampus ([2]; stereotactic level 10.41) [cells × 10^3/mm^3]	Neuronal densities CA3 hippocampus ([2]; stereotactic level 10.61) [cells × 10^3/mm^3]	Neuronal densities CA3 hippocampus ([2]; stereotactic level 10.81) [cells × 10^3/mm^3]	Neuronal densities CA3 hippocampus ([2]; stereotactic level 11.01) [cells × 10^3/mm^3]	Neuronal densities CA3 hippocampus ([2]; stereotactic level 11.21) [cells × 10^3/mm^3]	also measured
O=C(O)CN1C(=O)[C@@H](NC(=O)C2(C[C@@H](CCc3cccc4ccccc34)C(=O)O)CCCC2)CCc2ccccc21 [Formula 7, (2R)-2-{[1-({[(3S)-1-(carboxymethyl)-2-oxo-2,3,4,5-tetrahydro-1H-1-benzazepin-3-yl]amino)carbonyl)cyclopentyl]methyl}-4-(1-naphthyl)butanoic acid]	significant protective effect	still evident	partially prevented hippocampal neuronal loss	dose-dependent neuroprotective effects	107.25 ± 15.19	100.25 ± 14.71	93.50 ± 16.96	93.50 ± 12.36	101.50 ± 18.81	107.75 ± 16.51	Effect of treatment on neuronal loss in the CA3 hippocampus (ANOVA) ([1]; both tested doses (30 and 300 mg/kg i.v.), P<0.001, n=8 per group): significant protective effect; Neuroprotection of 300 mg/kg compared with 30 mg/kg (ANOVA) ([1]; i.v., 300 mg/kg vs 30 mg/kg): significantly better neuroprotection; Effect on hippocampal neuronal loss ([1]; injection of 30 or 300 mg/kg i.v.): partially prevented hippocampal neuronal loss; Neuronal densities CA3 hippocampus, i.v. administration ([1]; stereotactic level 10.21, 30 mg/kg i.v.): 107.50 ± 6.99 cells × 10^3/mm^3; Neuronal densities CA3 hippocampus, i.v. administration ([1]; stereotactic level 10.21, 300 mg/kg i.v.): 126.50 ± 5.53 cells × 10^3/mm^3; Neuronal densities CA3 hippocampus, i.v. administration ([1]; stereotactic level 10.41, 30 mg/kg i.v.): 102.25 ± 7.89 cells × 10^3/mm^3; Neuronal densities CA3 hippocampus, i.v. administration ([1]; stereotactic level 10.41, 300 mg/kg i.v.): 117.75 ± 4.95 cells × 10^3/mm^3; Neuronal densities CA3 hippocampus, i.v. administration ([1]; stereotactic level 10.61, 30 mg/kg i.v.): 100.75 ± 9.91 cells × 10^3/mm^3; Neuronal densities CA3 hippocampus, i.v. administration ([1]; stereotactic level 10.61, 300 mg/kg i.v.): 110.00 ± 7.01 cells × 10^3/mm^3; Neuronal densities CA3 hippocampus, i.v. administration ([1]; stereotactic level 10.81, 30 mg/kg i.v.): 101.75 ± 9.65 cells × 10^3/mm^3; Neuronal densities CA3 hippocampus, i.v. administration ([1]; stereotactic level 10.81, 300 mg/kg i.v.): 106.75 ± 7.48 cells × 10^3/mm^3; Neuronal densities CA3 hippocampus, i.v. administration ([1]; stereotactic level 11.01, 30 mg/kg i.v.): 111.25 ± 7.55 cells × 10^3/mm^3; Neuronal densities CA3 hippocampus, i.v. administration ([1]; stereotactic level 11.01, 300 mg/kg i.v.): 116.50 ± 9.06 cells × 10^3/mm^3; Neuronal densities CA3 hippocampus, i.v. administration ([1]; stereotactic level 11.21, 30 mg/kg i.v.): 117.75 ± 10.11 cells × 10^3/mm^3; Neuronal densities CA3 hippocampus, i.v. administration ([1]; stereotactic level 11.21, 300 mg/kg i.v.): 125.25 ± 5.01 cells × 10^3/mm^3
O=C(O)CN1C(=O)[C@@H](NC(=O)C2(C[C@@H](CCc3ccccc3)C(=O)O)CCCC2)CCc2ccccc21 [Formula 6, (2R)-2-{[1-({[(3S)-1-(carboxymethyl)-2-oxo-2,3,4,5-tetrahydro-1H-1-benzaepin-3-yl]amino}carbonyl)cyclopentyl]methyl}-4-phenylbutanoic acid]	significant protective effect	still evident	partially prevented hippocampal neuronal loss	dose-dependent neuroprotective effects	112.5 ± 11.40	103.75 ± 11.80	101.75 ± 14.80	98.50 ± 10.68	96.75 ± 13.98	101.75 ± 15.17	–
